System: NCI-H929 complex spheroids, viability % test/control
Test: Anticancer human tumor NCI-H929 cell line growth inhibition [RAS];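 also: compound exposure lasted seven days before viability was read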;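 as to viability, T/C: 100% = DMSO vehicle control viability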
Conditions: for IC50: curve of first compound; for viability, T/C: stronger effect = lower value
Summary of the method: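 Tumour cells grown as complex spheroids with HUVEC endothelial cells and mesenchymal stem cells, treated with RAS pathway inhibitor combinations. Each agent spans half-log steps from near clinical Cmax, or 10 microM where Cmax is unknown.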

CC(Nc1ccc2c(c1)OCCn1cc(N3C(=O)OCC3C(F)F)nc1-2)C(N)=O (configuration not stated) + C=CC(=O)N1CCN(c2nc(OCC3CCCN3C)nc3c(F)c(-c4nc(N)cc(C)c4C(F)(F)F)c(Cl)cc23)C(C)C1
IC50 (second compound 0.00316 µM): > 10 µM
IC50 (second compound 0.01 µM): > 10 µM
IC50 (second compound 0.0316 µM): > 10 µM
IC50 (second compound 0.1 µM): > 10 µM
IC50 (second compound 0.316 µM): > 10 µM
IC50 (second compound 1 µM): 8.11 µM
viability, T/C (second compound 0.00316 µM, first compound 0.0316 µM): 99%
viability, T/C (second compound 0.00316 µM, first compound 0.1 µM): 103%
viability, T/C (second compound 0.00316 µM, first compound 0.316 µM): 112%
viability, T/C (second compound 0.00316 µM, first compound 1 µM): 107%
viability, T/C (second compound 0.00316 µM, first compound 3.16 µM): 110%
viability, T/C (second compound 0.00316 µM, first compound 10 µM): 61.1%
viability, T/C (second compound 0.01 µM, first compound 0.0316 µM): 94.8%
viability, T/C (second compound 0.01 µM, first compound 0.1 µM): 103%
viability, T/C (second compound 0.01 µM, first compound 0.316 µM): 107%
viability, T/C (second compound 0.01 µM, first compound 1 µM): 112%
viability, T/C (second compound 0.01 µM, first compound 3.16 µM): 102%
viability, T/C (second compound 0.01 µM, first compound 10 µM): 64.3%
viability, T/C (second compound 0.0316 µM, first compound 0.0316 µM): 98%
viability, T/C (second compound 0.0316 µM, first compound 0.1 µM): 106%
viability, T/C (second compound 0.0316 µM, first compound 0.316 µM): 111%
viability, T/C (second compound 0.0316 µM, first compound 1 µM): 114%
viability, T/C (second compound 0.0316 µM, first compound 3.16 µM): 112%
viability, T/C (second compound 0.0316 µM, first compound 10 µM): 64.6%
viability, T/C (second compound 0.1 µM, first compound 0.0316 µM): 97.8%
viability, T/C (second compound 0.1 µM, first compound 0.1 µM): 104%
viability, T/C (second compound 0.1 µM, first compound 0.316 µM): 113%
viability, T/C (second compound 0.1 µM, first compound 1 µM): 113%
viability, T/C (second compound 0.1 µM, first compound 3.16 µM): 113%
viability, T/C (second compound 0.1 µM, first compound 10 µM): 66.1%
viability, T/C (second compound 0.316 µM, first compound 0.0316 µM): 102%
viability, T/C (second compound 0.316 µM, first compound 0.1 µM): 107%
viability, T/C (second compound 0.316 µM, first compound 0.316 µM): 112%
viability, T/C (second compound 0.316 µM, first compound 1 µM): 112%
viability, T/C (second compound 0.316 µM, first compound 3.16 µM): 112%
viability, T/C (second compound 0.316 µM, first compound 10 µM): 77.5%
viability, T/C (second compound 1 µM, first compound 0.0316 µM): 103%
viability, T/C (second compound 1 µM, first compound 0.1 µM): 110%
viability, T/C (second compound 1 µM, first compound 0.316 µM): 114%
viability, T/C (second compound 1 µM, first compound 1 µM): 115%
viability, T/C (second compound 1 µM, first compound 3.16 µM): 110%
viability, T/C (second compound 1 µM, first compound 10 µM): 36.7%
